Test results taken from ChEMBL document CHEMBL4118022, “Unguiculin A and Ptilomycalins E-H, Antimalarial Guanidine Alkaloids from the Marine Sponge Monanchora unguiculata” (J Nat Prod, 2017).

Assays:
KB = experiment: Cytotoxicity against human KB cells after 72 hrs by CellTiter96 AQueous one solution assay; type: cell-based
Plasmodium falciparum = experiment: Antiplasmodial activity against Plasmodium falciparum 3D7 erythrocytic stage assessed as reduction in parasitic LDH activity measured after 48 hrs by colorimetric method; type: functional, organism-based; conditions: 3D7, 48 h
[1] = Selectivity index, ratio of IC50 for human KB cells to IC50 for Plasmodium falciparum 3D7 erythrocytic stage; type: toxicity; conditions: KB cells versus Plasmodium falciparum 3D7 erythrocytic stage, read-out: Ratio IC50

Compound | IC50 (KB) | IC50 (Plasmodium falciparum) | selectivity ratio [1]
CC[C@@H]1C=CCC[C@]2(C[C@H]3CC[C@H]4[C@@H](C(=O)OCCCCCCCCCCCCCCCC5=NCCCN5CC(O)CCN)[C@@]5(CCC[C@H](C)O5)NC(=N2)N34)O1 (some centres undefined) | 1170 nM | 240 nM | 4.9
CC[C@@H]1C=CCC[C@]2(C[C@H]3CC[C@H]4[C@@H](C(=O)OCCCCCCCCCCCCCCCC(=O)N(CCCCNC(=N)N)CCCNC(=N)N)[C@@]5(CCC[C@H](C)O5)NC(=N2)N34)O1 | 850 nM | 350 nM | 2.4
CC[C@@H]1C=CCC[C@]2(C[C@H]3CC[C@H]4[C@@H](C(=O)OCCCCCCCCCCCCCCCC(=O)N(CCCCNC(=N)N)CCCNC=O)[C@@]5(CCC[C@H](C)O5)NC(=N2)N34)O1 | 1610 nM | 230 nM | 7
CCCCCCCCCCCCCCCC(=O)N(CCCCNC(=N)N)CCCNC(=N)N | 7660 nM | 12900 nM | 0.6
CC[C@@H]1C=CCC[C@]2(C[C@H]3CC[C@H]4[C@@H](C(=O)OCCCCCCCCCCCCCCCC(=O)O)[C@@]5(CCC[C@H](C)O5)NC(=N2)N34)O1 | 8800 nM | – | –
C[C@@H]1CC[C@H]2[C@@H](C)C(=O)O[C@@H]3O[C@@]4(C)CC[C@@H]1[C@]32OO4 [ARTEMISININ] | – | 4 nM | –
